The text below walks through data of patent publication US6716819B2, “Use of xylitol to reduce ionic strength and activate endogenous antimicrobials for prevention and treatment of infections” (University of Iowa Research Foundation, priority 2000, dated 2004).

For data set [1] the following is noted: in chewing gum, lozenges, or syrup; cited from earlier work.
Data set [2] relates to non-CF epithelia. The experiment in a line: ASL Cl- concentration and volume (isotope method). In kind it is cell-based, human. As for the experimental part:
FIGS. 3(A-B). The effect of apical xylitol on non-CF and CF ASL Cl^− concentration and volume. Five μl of isosmotic xylitol or saline solution were applied to the apical surface. Twenty-four hours later, ASL Cl^− concentration (A) and volume (B) were determined. Asterisk indicates a difference between the saline and the xylitol solutions, p<0.05. N=15 to 18 from 3 CF and 3 non-CF specimens.
Airway epithelial cells were isolated from tracheal and bronchial tissue. […] All epithelia were evaluated with scanning electron microscopy for the development of a ciliated apical surface.
The ASL Cl^− concentration was measured as previously described (Zabner, J., J. J. Smith, P. H. Karp, J. H. Widdicombe, and M. J. Welsh. 1998. Loss of CFTR chloride channels alters salt absorption by cystic fibrosis airway epithelia in vitro. Mol. Cell. 2:397-403). […] The ratio of ^36Cl to ^3H2O was determined by liquid scintillation. […] From these measurements, it was determined the ^3H2O activity per μl of water and the cpm of ^36Cl per mole of Cl^− in the basolateral medium. ASL volume was calculated from the ASL ^3H2O collected divided by the ratio of ^3H2O activity per μl of basolateral medium. Chloride content was calculated from the ASL ^36Cl collected divided by the ratio of ^36Cl per mole of Cl^− in the basolateral medium ASL Cl^− concentration was calculated from the Cl^− content divided by the volume of ASL. […]

In data set [3] the test system is non-CF epithelia. The format is in vitro ADME, human. As for the experimental part:
FIGS. 1(A-C). Permeability of xylitol added to the apical surface of non-CF epithelia. Xylitol (138 mM in 60 μl) was added to the apical surface of differentiated airway epithelia at time zero. Apical liquid was removed and volume determined at times indicated. Xylitol was measured by NMR. Data are mean±SEM; n=4. Some SEM bars are hidden by symbols.
Airway epithelial cells were isolated from tracheal and bronchial tissue. Cells were seeded onto collagen-coated, semi-permeable membranes (0.6 cm^2 Millicel-HA; Millipore, Bedford, Mass.) and grown at the air-liquid interface as previously described (Smith, J. J., S. M. Travis, E. P. Greenberg, and M. J. Welsh. 1996. Cystic fibrosis airway epithelia fail to kill bacteria because of abnormal airway surface fluid. Cell. 85:229-236; and erratum 287(222); Yamaya, M., W. E. Finbeiner, S. Y. Chun, and J. H. Widdicombe. 1992. Differentiated structure and function of cultures from human tracheal epithelium. Am. J. Physiol. 262:L713-L724; Zabner, J., B. G. Zeiher, E. Friedman, and M. J. Welsh. 1996. […] All epithelia were evaluated with scanning electron microscopy for the development of a ciliated apical surface.
Proton nuclear magnetic resonance spectroscopy was used to measure the xylitol concentration in the fluid on the apical surface. […] Concentrations were then determined by comparing the measured peak integral to a standard curve for xylitol. […]

Regarding `OC[C@@H](O)[C@H](O)[C@@H](O)CO` [xylitol], the “decrease in incidence of acute otitis media” value in data set [1] is recorded as 20-40%. For the same molecule, the “estimated ASL volume” value in the data set with non-CF epithelia [2] (24 hours after 5 μl apical) is recorded as “increased”. Moreover, in the data set on non-CF epithelia [2] (24 hours after 5 μl isosmotic xylitol solution apical), the “ASL Cl- concentration” value stood at 34.2 ± 4.3 mM. In the data set with non-CF epithelia [3], the xylitol permeability result is “not high”. Moreover, in the data set on non-CF epithelia [3] (human, 138 mM), the “time after which approximately half the applied xylitol would diffuse to the basolateral surface” value is around 11 h.
